In patent publication US20250042897A1, “HETEROCYCLIC COMPOUNDS AS TRIGGERING RECEPTOR EXPRESSED ON MYELOID CELLS 2 AGONISTS AND METHODS OF USE” (Vigil Neuroscience, Inc., priority 2021, published 2025):

biological target: T1, human TREM2 (Homo sapiens, UniProt Q9NZC2); assay: hTREM2 agonist potency by cellular Syk phosphorylation (AlphaLisa) in HEK293T-hTREM2 cells; type: cell-based; details: Table D-2; HEK293 cells expressing human TREM2 and DAP12; pSyk AlphaLisa; 45 minutes at room temperature
T1 construct: expressed in transfected cells; host or cells: HEK293T
T1 sequence (Q9NZC2 19-230): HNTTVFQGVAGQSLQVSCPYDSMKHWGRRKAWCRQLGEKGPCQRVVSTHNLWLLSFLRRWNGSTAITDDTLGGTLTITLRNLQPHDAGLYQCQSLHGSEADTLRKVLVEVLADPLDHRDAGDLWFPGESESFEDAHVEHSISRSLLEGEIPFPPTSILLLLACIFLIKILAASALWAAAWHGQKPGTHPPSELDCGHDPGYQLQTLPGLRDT
T1 sequence (O43914 22-113 partner): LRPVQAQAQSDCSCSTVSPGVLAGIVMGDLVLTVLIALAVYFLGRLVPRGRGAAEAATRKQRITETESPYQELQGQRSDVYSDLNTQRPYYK
Procedure: In Vitro Measurement of Triggering Receptor Expressed on Myeloid Cells 2 Activity Using Cellular Phosphorylation of Spleen Tyrosine Kinase (“Syk”) Assays
Measurement of TREM2 agonist potency was done using a HEK cell line expressing human TREM2 and DAP12 (HEK293T-hTREM2 cells). Binding of small molecules to, and activation of, TREM2 increases the phosphorylation of Syk. The resultant levels of Syk phosphorylation are measured using a commercial AlphaLisa reagent kit. To perform the assay, HEK-hTREM2 cells were plated at 14,000 cells per well in a 384 well plate, in 25 μL of complete growth media and incubated at 37° C., 5% CO2 for 20-24 hours.
Prior to the assay, test compounds were diluted in the 384 well plates in assay buffer and allowed to equilibrate for 30 minutes. Growth media was removed from cell plates by inversion on blotting paper, and 25 μL of test articles in assay buffer was added to cells. Cells were incubated for 45 minutes at room temperature. After 45 minutes, assay buffer was removed and 10 μL of lysis buffer was added. Plates were shaken for 20 minutes at 350 RPM at room temperature. After complete lysis, AlphaLisa reagents were added to the lysate, and fluorescence intensity was measured using a Perkin Elmer Envision plate reader. Intensities were used to generate a standard curve, and % activation was calculated. Curve fitting was performed using Prism v9 software, log (agonist) vs response-variable slope (four parameters), and EC50s were calculated from the curve fit.
The results presented in Table D have been generated with the in vitro assay described above. This assay may be used to test any of the compounds described herein to assess and characterize a compound's ability to act as an agonist of TREM2.

Structure (SMILES) | EC50
Cn1ncc2c(-c3ccc(Cl)cc3F)nc(N3C[C@@H](C4CC4)O[C@@H](c4cnn(C5CC5)c4)C3)nc2c1=O (single isomer, unassigned) [I-183] | ≤ 50 nM
Cn1ncc2c(-c3ccc(Cl)cc3F)nc(N3C[C@@H](c4cnn(C5CC5)c4)O[C@@H](C4CC4)C3)nc2c1=O (single isomer, unassigned) [I-184] | ≤ 50 nM
Cn1ncc2c(-c3ccc(Cl)cc3F)nc(N3CCOC(c4cnn(C5CC5)c4)C3)cc2c1=O (stereo not drawn) [I-45, 5-(4-chloro-2-fluorophenyl)-7-(2-(1-cyclopropyl-1H-pyrazol-4-yl)morpholino)-2-methylpyrido[3,4-d]pyridazin-1 (2H)-one] | 50 to 500 nM
Cn1ncc2c(-c3ccc(Cl)cc3F)nc([C@H]3CCO[C@@H](c4cnn(C5CC5)c4)C3)cc2c1=O [I-48, 5-(4-chloro-2-fluoro-phenyl)-7-[(2R,4S)-2-(1-cyclopropylpyrazol-4-yl)tetrahydropyran-4-yl]-2-methyl-pyrido[3,4-d]pyridazin-1-one] | ≤ 50 nM
Cn1ncc2c(-c3ccc(C(F)(F)F)cc3F)nc([C@H]3CCO[C@@H](c4cnn(C5CC5)c4)C3)cc2c1=O [I-53, 7-[(2R, 4S)-2-(1-cyclopropylpyrazol-4-yl)tetrahydropyran-4-yl]-5-[2-fluoro-4-(trifluoroomethyl)phenyl]-2-methyl-pyrido[3,4-d]pyridazin-1-one] | 50 to 500 nM
C[C@@H]1CN(c2cc3c(=O)n(C)ncc3c(-c3ccc(F)cc3F)n2)C[C@H](c2cnn(C3CC3)c2)O1 [I-58, 7-[(2S,6R)-2-(1-cyclopropylpyrazol-4-yl)-6-methyl-morpholin-4-yl]-5-(2,4-difluorophenyl)-2-methyl-pyrido[3,4-d]pyridazin-1-one] | ≤ 50 nM
Cc1cc2c(-c3ccc(C(F)(F)F)cc3F)nc(N3C[C@@H](C)O[C@@H](c4cnn(C5CC5)c4)C3)cc2c(=O)n1C [I-79, 7-((2S,6R)-2-(1-cyclopropyl-1H-pyrazol-4-yl)-6-methylmorpholino)-5-(2-fluoro-4-(trifluoromethyl)phenyl)-2,3-dimethyl-2,6-naphthyridin-1 (2H)-one] | ≤ 50 nM
Cc1nc2c(-c3ccc(F)cc3F)nc(N3C[C@@H](C)O[C@@H](c4cnn(C5CC5)c4)C3)nc2c(=O)n1C [I-90, 6-((2S,6R)-2-(1-cyclopropyl-1H-pyrazol-4-yl)-6-methylmorpholino)-8-(2,4-difluorophenyl)-2,3-dimethylpyrimido[5,4-d]pyrimidin-4 (3H)-one] | ≤ 50 nM
Cc1cc2c(-c3ccc(C(F)(F)F)cc3F)nc([C@H]3CCO[C@@H](c4cnn(C5CC5)c4)C3)cc2c(=O)n1C [I-95, 7-((2R,4S)-2-(1-cyclopropyl-1H-pyrazol-4-yl)tetrahydro-2H-pyran-4-yl)-5-(2-fluoro-4-(trifluoromethyl)phenyl)-2,3-dimethyl-2,6-naphthyridin-1 (2H)-one] | ≤ 50 nM
C[C@@H]1CN(c2cc(-c3ccc(Cl)cc3F)c3cnn(C)c(=O)c3n2)C[C@H](c2cnn(C3CC3)c2)O1 [I-100, 4-(4-chloro-2-fluorophenyl)-2-((2S,6R)-2-(1-cyclopropyl-1H-pyrazol-4-yl)-6-methylmorpholino)-7-methylpyrido[2,3-d]pyridazin-8 (7H)-one] | 50 to 500 nM
Cc1nc2c(-c3ccc(F)cc3F)cc(N3C[C@@H](C)O[C@@H](c4cnn(C5CC5)c4)C3)nc2c(=O)n1C [I-110, 6-((2S,6R)-2-(1-cyclopropyl-1H-pyrazol-4-yl)-6-methylmorpholino)-8-(2,4-difluorophenyl)-2,3-dimethylpyrido[3,2-d]pyrimidin-4 (3H)-one] | ≤ 50 nM
Cc1nc2c(-c3ccc(C(F)(F)F)cc3F)nc(N3C[C@@H](C)O[C@@H](c4cnn(C5CC5)c4)C3)nc2c(=O)n1C [I-136, 6-[(2S,6R)-2-(1-cyclopropylpyrazol-4-yl)-6-methyl-morpholin-4-yl]-8-[2-fluoro-4-(trifluoromethyl)phenyl]-2,3-dimethyl-pyrimido[5,4-d]pyrimidin-4-one] | ≤ 50 nM
C[C@@H]1CN(c2nc(-c3ccc(F)cc3F)c3cnn(C)c(=O)c3n2)C[C@H](c2cnn(C3CC3)c2)O1 [I-141, 2-[(2S, 6R)-2-(1-cyclopropylpyrazol-4-yl)-6-methyl-morpholin-4-yl]-4-(2,4-difluorophenyl)-7-methyl-pyrimido[4,5-d]pyridazin-8-one] | ≤ 50 nM
Cc1nc2c(-c3ccc(Cl)cc3F)nc(N3C[C@@H](C)O[C@@H](c4cnn(C5CC5)c4)C3)nc2c(=O)n1C [I-152, 8-(4-chloro-2-fluoro-phenyl)-6-[(2S,6R)-2-(1-cyclopropylpyrazol-4-yl)-6-methyl-morpholin-4-yl]-2,3-dimethyl-pyrimido[5,4-d]pyrimidin-4-one] | ≤ 50 nM
C[C@@H]1CN(c2nc(-c3ccc(F)cc3F)c3ncn(C)c(=O)c3n2)C[C@H](c2cnn(C3CC3)c2)O1 [I-163, 6-((2S,6R)-2-(1-cyclopropyl-1H-pyrazol-4-yl)-6-methylmorpholino)-8-(2,4-difluorophenyl)-3-methylpyrimido[5,4-d]pyrimidin-4 (3H)-one] | ≤ 50 nM
COCn1cc([C@H]2CN(c3nc(-c4ccc(Cl)cc4F)c4cnn(C)c(=O)c4n3)C[C@@H](C)O2)cn1 [I-178] | ≤ 50 nM
Cc1cc([C@H]2CC(c3nc(-c4ccc(Cl)cc4F)c4nc(C)n(C)c(=O)c4n3)CCO2)ccn1 (stereo partly drawn) [I-188, 8-(4-chloro-2-fluoro-phenyl)-2,3-dimethyl-6-[(2R)-2-(2-methyl-4-pyridyl)tetrahydropyran-4-yl]pyrimido[5,4-d]pyrimidin-4-one] | ≤ 50 nM

Further lines, results first:

EC50 | Structure (SMILES)
≤ 50 nM | Cc1nc2nc([C@H]3CCO[C@@H](c4cnn(C5CC5)c4)C3)cc(-c3ccc(F)cc3F)c2c(=O)n1C (single isomer, unassigned) [I-40]
500 to 3000 nM | Cc1nc2nc([C@@H]3CCO[C@H](c4cnn(C5CC5)c4)C3)cc(-c3ccc(F)cc3F)c2c(=O)n1C (single isomer, unassigned) [I-42]
50 to 500 nM | Cn1ncc2c(-c3ccc(F)cc3F)nc(C3CCO[C@@H](c4cnn(C5CC5)c4)C3)cc2c1=O (stereo partly drawn) [I-63, 7-[(2R)-2-(1-cyclopropylpyrazol-4-yl)tetrahydropyran-4-yl]-5-(2,4-difluorophenyl)-2-methyl-pyrido[3,4-d]pyridazin-1-one]
50 to 500 nM | Cn1ncc2c(-c3ccc(C(F)(F)F)cc3F)nc(C3CCO[C@@H](c4cnn(C5CC5)c4)C3)nc2c1=O (stereo partly drawn) [I-84, 2-((2R)-2-(1-cyclopropyl-1H-pyrazol-4-yl)tetrahydro-2H-pyran-4-yl)-4-(2-fluoro-4-(trifluoromethyl)phenyl)-7-methylpyrimido[4,5-d]pyridazin-8 (7H)-one]
50 to 500 nM | Cc1nc2c(-c3ccc(F)cc3F)nc([C@H]3CCO[C@@H](c4cnn(C5CC5)c4)C3)nc2c(=O)n1C [I-105, 6-((2R,4S)-2-(1-cyclopropyl-1H-pyrazol-4-yl)tetrahydro-2H-pyran-4-yl)-8-(2,4-difluorophenyl)-2,3-dimethylpyrimido[5,4-d]pyrimidin-4 (3H)-one]
500 to 3000 nM | O=c1c2nc(C3CCOC(c4cnn(C5CC5)c4)C3)nc(-c3ccc(C(F)(F)F)cc3F)c2cnn1C1CC1 (stereo not drawn) [I-115]
50 to 500 nM | Cc1nc2c(-c3ccc(F)cc3F)cc([C@H]3CCO[C@@H](c4cnn(C5CC5)c4)C3)nc2c(=O)n1C [I-120, 6-((2R,4S)-2-(1-cyclopropyl-1H-pyrazol-4-yl)tetrahydro-2H-pyran-4-yl)-8-(2,4-difluorophenyl)-2,3-dimethylpyrido[3,2-d]pyrimidin-4 (3H)-one]
50 to 500 nM | Cc1nc2c(-c3ccc(C(F)(F)F)cc3F)nc([C@@H]3CCO[C@@H](c4cnn(C5CC5)c4)C3)nc2c(=O)n1C [I-132, 6-[(2R,4R)-2-(1-cyclopropylpyrazol-4-yl)tetrahydropyran-4-yl]-8-[2-fluoro-4-(trifluoromethyl)phenyl]-2,3-dimethyl-pyrimido[5,4-d]pyrimidin-4-one]
≤ 50 nM | Cc1nc2c(-c3ccc(C(F)(F)F)cc3F)nc([C@H]3CCO[C@@H](c4cnn(C5CC5)c4)C3)nc2c(=O)n1C [I-134, 6-[(2R,4S)-2-(1-cyclopropylpyrazol-4-yl)tetrahydropyran-4-yl]-8-[2-fluoro-4-(trifluoromethyl)phenyl]-2,3-dimethyl-pyrimido[5,4-d]pyrimidin-4-one]
50 to 500 nM | Cn1ncc2c(-c3ccc(F)cc3F)nc(C3CCO[C@@H](c4cnn(C5CC5)c4)C3)nc2c1=O (stereo partly drawn) [I-146, 2-[(2R)-2-(1-cyclopropylpyrazol-4-yl)tetrahydropyran-4-yl]-4-(2,4-difluorophenyl)-7-methyl-pyrimido[4,5-d]pyridazin-8-one]
500 to 3000 nM | Cn1ncc2c(-c3ccc(F)cc3F)nc(C3CCO[C@@H](c4cn(C5CC5)[n+](C)c4)C3)nc2c1=O (stereo partly drawn) [I-157, 2-[(2R)-2-(1-cyclopropyl-2-methyl-pyrazol-2-ium-4-yl)tetrahydropyran-4-yl]-4-(2,4-difluorophenyl)-7-methyl-pyrimido[4,5-d]pyridazin-8-one]
50 to 500 nM | Cc1nc2c(-c3ccc(F)cc3F)nc([C@@H]3CCO[C@@H](c4cnn(C5CC5)c4)C3)nc2c(=O)n1C [I-168]
500 to 3000 nM | CC1Nc2c(nc([C@H]3CCO[C@@H](c4cnn(C5CC5)c4)C3)nc2-c2ccc(F)cc2F)C(=O)N1C (stereo partly drawn) [I-173]
